System: LLC1 tumor cells (Lewis lung cancer cell line)
Assay: Lewis lung (LLC) peritoneal carcinomatosis model, tumor resistance test
Assay type: in vivo, C57BL/6J mice
Details: for number of mice with tumors: 5 mice per group, 26th day, control: all mice; for average size of tumors (width times length): injected daily for 13 days, sacrificed on 26th day, control 12.38
From the text: Lewis lung (LLC) peritoneal carcinomatosis model was used for treatment and prevention of cancer in vivo animal tests, referring to Bertram J S, Janik P., Cancer Lett 1980 November;11(1):63-73; Hirazumi A, Furusawa E. Phytother Res. 1999 August;13(5):380-7; Itoh H, Noda H, Amano H, Ito H. Anticancer Res. 1995 September-October;15(5B):1937-47; Wallace P K, Morahan P S., J Leukoc Biol. 1994 July;56(1) :41-51.; Redmond HP, Schuchter L, Bartlett D, Kelly C J, Shou J, Leon P, Daly J M. , J Surg Res. 1992 April;52(4):406-11; Kagawa K, Yamashita T, Tsubura E, Yamamura Y., Cancer Res. 1984 February;44(2):665-70; and Yamamoto T, Yamashita T, Tsubura E., Invasion Metastasis. 1981; 1(1) :71-84.
Twenty male C57BL/6J mice of two month old were separated into four groups for 5 mice/each. Each mouse was inoculated with 1×10^5 LLC1 tumor cells (Lewis lung cancer cell line) by abdominal injection around the thigh on the first day, i.e. day 0. Each group of mice was treated differently for 13 days as described below and treatment was stopped for 12 days. The mice were sacrificed on the 26th day. The abdomen of each mouse was dissected to examine the tumor size. The size of tumor was defined as width times length.
5 mice were used as the control group. The mice in the control group were injected daily with 100 microliters of saline with propylene glycol (3.05 μl propylene glycol in 100 ml normal saline) for 13 days. The treatment was stopped for 12 days and the mice were sacrificed on the 26th day after inoculation with LLC1 tumor cells. All mice had tumors with an average size of 12.38.
Authentic lovastatin sample was prepared and dissolved in saline with […] as indicated above. The dose amount for administration was adjusted according to mice body weight. The dose amount indicated was the proportional equivalent of lovastatin for human subjects of 60 Kg body weight.
Five C57BL/6J mice were inoculated with 1×10^5 LLC1 cells on day 0 as described above. Lovastatin equivalent of 80 mg/person was injected daily on the other side of the abdomen every day for 13 days. The treatment was stopped for 12 days and the mice were sacrificed on the 26th day after inoculation of LLC1 tumor cells. All mice had tumors with an average size of 9.96.
The same procedures of L80 were followed except that the dose amount for administration was changed to 200 mg/day/person equivalent. Three mice had tumors with an average size of 6.8.
The liquid fermentation product obtained from sample 2 was centrifuged 10,000 rpm for 20 minutes. The supernatant was collected and further filtrated with a 0.2 micron filter in sterile condition. The concentration of lovastatin in the derived filtrate was detected as 0.45 mg/ml. The dose amount for administration was adjusted according to mice body weight. The equivalent amount of lovastatin for human subjects was used for mice tumor resistance tests as indicated.
The same procedures of example L80 were followed except that the sample was Monascus composition. The dose amount for administration was equivalent to 80 mg lovastatin/day/person. The filtrate was administrated in the ratio of 60 μl filtrate to 40 μl saline.
The same procedures of example M80 were followed except that the administration sample was Monascus composition. The dose amount for administration was equivalent to 200 mg lovastatin/day/person. The filtrate was administrated in the ratio of 60 μl filtrate to 40 μl saline.

[1] = dose equivalent to 80 mg lovastatin/day/person
[2] = dose equivalent to 200 mg lovastatin/day/person

CC[C@H](C)C(=O)O[C@H]1C[C@@H](C)C=C2C=C[C@H](C)[C@H](CC[C@@H]3C[C@@H](O)CC(=O)O3)[C@H]21 [Lovastatin, lovastatin]
number of mice with tumors [1]: All | average size of tumors (width times length) [1]: 9.96 | number of mice with tumors [2]: Three | average size of tumors (width times length) [2]: 6.8 | tumor size (FIG. 6), in words (higher dose of lovastatin (L200) and Monascus compositions M80 and M200): smaller tumor sizes

Reference: patent US20040081663A1, “Pharmaceutical composition for treatment and prevention of cancer and the preparation thereof” (priority 2002, published 2004)
